In patent US5143931A, “Leukotriene antagonists containing tetrazolyl groups” (SmithKline Beecham Corporation, priority 1990, dated 1992):
Structures can show the parent of a compound that is named as a salt.

biological target: T1, leukotriene induced contraction of guinea pig tracheal tissues (Cavia porcellus, UniProt Q2NNR5); assay: Inhibition of leukotriene (LTD4) induced contraction of guinea pig tracheal spiral strips in vitro; conditions: LTD4 concentration-response curves on guinea pig tracheal strips, 30 minutes pretreatment with test compound; current average where tested more than once; read-out: In Vitro -Log K8 (converted)
T1 sequence (Q2NNR5 1-340): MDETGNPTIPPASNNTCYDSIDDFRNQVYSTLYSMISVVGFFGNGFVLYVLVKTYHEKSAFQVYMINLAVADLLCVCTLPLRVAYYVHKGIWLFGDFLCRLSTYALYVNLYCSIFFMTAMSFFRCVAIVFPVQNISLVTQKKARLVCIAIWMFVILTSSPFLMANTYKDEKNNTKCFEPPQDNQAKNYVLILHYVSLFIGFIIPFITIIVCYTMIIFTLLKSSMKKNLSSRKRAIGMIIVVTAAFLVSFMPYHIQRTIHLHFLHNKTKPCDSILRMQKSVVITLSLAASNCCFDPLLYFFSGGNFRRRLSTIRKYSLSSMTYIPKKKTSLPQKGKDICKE

Kd | SMILES
794 nM | CCCCCCCCCCCCc1ccccc1C(Sc1nnnn1CC(=O)O)C(=O)O (stereo not drawn) [2(2-Dodecylphenyl)-2[(1-carboxymethyl-5-tetrazolyl)thio]acetic acid]
1580 nM | CCCCCCCCCCCCc1ccccc1C(Sc1nnnn1C)C(=O)O (stereo not drawn) [5-tetrazolyl, 0,1-CH3, C12 H25, CO2 H, 2-(2-Dodecylphenyl)-2[(1-methyl-5-tetrazolyl)thio]acetic acid]
1000 nM | O=C(O)CCCn1nnnc1SC(C(=O)O)c1ccccc1CCCCCCCCc1ccccc1 (stereo not drawn) [dipotassium salt hydrate]
